Literature values, collected in patent US20020048798A1, “Novel antioxidants” (priority 2000, published 2002).

Settings: factor relative to the racemate of α-lipoic acid

O=C(O)CCCC[C@@H]1CCSS1 [R-α-lipoic acid]
anti-inflammatory activity, stronger by a factor than that of the racemate: 10
